Patent US20080275105A1, “Selective Muscle Relaxant and Pharmaceutical Compositions” (UNIVERSIDADE FEDERAL DO RIO DE JANEIROUFRJ, priority 2004, published 2008)

Legend:
[1] = tested on: rat aorta rings with preserved endothelium; assay: KCl-induced contracture in aorta rings with preserved endothelium; format: cell-based; details: KCl 40 mM; for amplitude of the KCl contracture, with endothelium: 200 μM stated for L790; for IC50: Rattus norvegicus, with endothelium, six experiments, read-out: CI50 (μM) Average ± SEM
Experimental: (§1) Once the experiments have been carried out, the findings were subject to statistical analyses being expressed in average ±SEM as a percentage of the control value, and graphs were drawn up using the Sigma Plot 5.0 program to represent the data obtained. For the statistical analysis of the effects on the different muscle tissues, the difference was assessed among the concentrations of the same derivative, using the “t” Student test. In order to ascertain the difference among the derivatives, the one-way ANOVA test was used. The differences were considered as significant for p<0.05. The Cl50 was expressed as an average ±SEM of the values obtained for each experiment through non-linear regression based on the y=yo+ae^−bx equation.
(§2) Male Wistar rats weighing between 240-280 grams were sacrificed through dislocation of the cervical column under anesthesia using ethyl ether. The aorta artery was removed and transferred to a Petri dish containing modified Tyrode's solution whose composition is described in Table 3 below, where the vessel was cleaned and the connective tissue was removed. According to the scheduled Experiment Protocol, the vascular endothelium was removed mechanically with the assistance of a polyethylene rod. The artery was divided into rings with a width of 2-3 mm. Two hooks were placed in the wall of the vessel in order to record the tension generated by the muscle in a transversal direction. To do so, one of the hooks was tied to a fixed point in the chamber and the other to a power transducer (FT 03) for recording the isometric tension. The tension generated by the muscle was transformed into a digitized electric signal (Digidata 1322A) and stored in a computer for subsequent analysis using the Axoscope 8.0 program (Axon Instruments, Inc). The chamber was filled with Krebs solution, oxygenated and kept at a temperature of 37° C.
(§3) After stabilizing the preparation, approximately 120 minutes, the Experiment Protocol began. Initially, in order to identify the presence or absence of the vascular endothelium, the preparation was exposed to phenylephrine (10 μM) and when the contracture in response to this substance was stabilized, acetylcholine (10 μM) was added to the nutrient solution. Relaxation of over 80% in response to the acetylcholine indicated the full integrity of the endothelium and relaxation of less than 10% indicated the absence of endothelium. The tissues in which the relaxation intensity fell between >10% and <80% were discarded. In order to investigate the vasodilator effect of the different L294 analogs, they were added to the experiment chambers in rising concentration after the contracture stabilization of the vessel induced by phenylephrine. The tension registered after treatment with each of the L294 analog concentrations was normalized as a function of the amplitude of the contracture triggered by phenylephrine. For the purpose of comparing the potency of some of the L294 analogs, the Cl50 was determined for each experiment using the y=yo+ae^−bx equation and their mean was used for the statistical analysis.
The effects of the L294 analogs were investigated in rat aorta rings with preserved endothelium whose contracture was induced by increasing the extra-cellular concentration of KCl to 40 mM. Of the seven L294 analogs, this test was carried out only with the L785, L786, L789 and L790, in this group of experiments.

[2] = tested on: soleus (SOL) muscle; assay: Electrically induced twitch amplitude in slow-fiber skeletal muscle (SOL); format: cell-based, mice; details: for SOL twitch amplitude 30 min-Washing (% of the control): 30 min after washing
Experimental: (§4) Male mice weighing 22-28 g were sacrificed through cervical dislocation and the extensor digitorium longus (EDL) and soleus (SOL) muscles were dissected in a Ringer-Krebs solution, whose composition is given in Table 9, at room temperature. The muscles were placed in vertical chambers with a capacity of 10 ml, and were fixed by their ends to the stimulation electrode fixation rod and a power transducer (Grass FT03) for registering muscle twitches. The chamber solution was bubbled continuously with a carbogenic mixture (95% O2/5% CO2) and kept at a temperature of 37° C. The muscles were stimulated electrically through a stimulator (Grass S88) at a frequency of 0.2 Hz, at 37° C. After the stabilization of the muscle twitches (±30 minutes) a control record was taken in the absence of the drug, and subsequently rising concentrations (from 10 μM to 200 μM) of the L294 derivatives were added every ten minutes, diluted in DMSO. […] The signals recorded by the transducer were amplified (Cyberamp) and the isometric tension was digitized (Digidata 1322A) and stored on a computer. The screening and analysis of the experiment was handled through the use of the Axoscope 8.0 program. (Zapata-Sudo, 2003).
(§5) A measurement of the electrically-induced twitch amplitude was selected to assist the effects of the L294 analogs on the skeletal muscle inotropism. One muscle consisting of fast fibers (extensor digitorium longus-EDL) and the other of slow fibers (soleus-SOL) taken from mice were selected for this purpose. Differences in the timing of the twitches between the fast and slow muscles are shown at the faster recording speed. […] Washing the preparation with Krebs solution caused a partial reversion of the effects induced by the L786.

[3] = tested on: tracheal rings of a rat; assay: Acetylcholine-induced contracture of trachea rings; format: cell-based; details: acetylcholine 10 μM; for muscle relaxation effect on trachea rings: cumulative concentrations up to 200 μM, result in words
Experimental: A preparation of trachea rings is used for observing the probable action of these powerful vasodilators in other smooth musculature tissues. FIG. 12 presents the typical record of the acetylcholine-induced trachea rings contracture (Ach, 10 μM) followed by exposure to rising cumulative concentrations of the L785 derivative up to 200 μM. A dose-dependent reduction may be noted in the amplitude of the acetylcholine-induced contracture.
The same protocol was used for the L786 derivative and the solvent (FIG. 13).

[4] = tested on: aorta rings with no preserved endothelium; assay: Phenylephrine-induced contracture in aorta rings without endothelium; format: cell-based, rat; details: for IC50: Rattus norvegicus, phenylephrine 10 μM, without endothelium, six experiments, read-out: CI50 (MM) Average ± SEM
Experimental: as §1, §2, §3
The importance of the presence of vascular endothelium in the vasodilatory action of the L294 analogs was assessed in experiments in which these cells were removed mechanically. […] When the findings of the experiments without the endothelium were analyzed as a whole, the absence of the L790 effect was confirmed. […] The maximum relaxation caused by the L787 and L789 analogs was less than 50% of the control, and the other analogs caused relaxation in the following decreasing order of efficacy: L785>L788>L786. Once again, attention is drawn to the marked efficiency of the L785 and L788 analogs.

[5] = tested on: rat aorta rings with no endothelium; assay: KCl-induced contracture in aorta rings without endothelium; format: cell-based; details: KCl 40 mM; for IC50: Rattus norvegicus, without endothelium, six experiments, read-out: CI50 (μM) Average ± SEM
Experimental: as §1, §2
as §3, with “[…] […]” for “In order to investigate the vasodilator effect of the different L294 analogs, they were added to the experiment chambers in rising concentration after the contracture stabilization of the vessel induced by phenylephrine. The tension registered after treatment with each of the L294 analog concentrations was normalized as a function of the amplitude of the contracture triggered by phenylephrine.”

[6] = tested on: extensor digitorium longus (EDL) muscle; assay: Electrically induced twitch amplitude in fast-fiber skeletal muscle (EDL); format: cell-based, mice
Experimental: as §4, §5

| Compound | amplitude of the KCl contracture, with endothelium [1] | IC50 [1] [µM] | SOL twitch amplitude 200 μM (% of the control) [2] | SOL twitch amplitude 30 min-Washing (% of the control) [2] | muscle relaxation effect on trachea rings [3] | relaxation of phenylephrine contracture, without endothelium ([4]; 100 μM, result in words) | IC50 [4] [µM] | reversal of the contracture caused by K+, without endothelium ([5]; highest concentration 200 μM, result in words) | IC50 [5] [µM] | EDL twitch amplitude 200 μM (% of the control) [6] | EDL twitch amplitude 30 min-Washing (% of the control) ([6]; 30 min after washing) | effect on SOL muscle twitches ([2]; 50 μM, result in words) | amplitude of the acetylcholine-induced contracture of trachea rings ([3]; 200 μM) | effect on EDL muscle twitches ([6]; 50 μM, result in words) |
| --- | --- | --- | --- | --- | --- | --- | --- | --- | --- | --- | --- | --- | --- | --- |
| CN(/N=C/c1cccs1)C(=O)c1ccc2c(c1)OCO2 [L785, 1,3-Benzodioxol-5-carboxylic acid, N-methyl-N′-[1-thiophene-2-yl-meth-(E)-ylidene]-hydrazide] | 8.1±3.8 % of the control | 34.1 ± 6.3 | 28.4±6.6 % of the control | 37.9 ± 9.6 % of the control | significant dose-dependent muscle relaxation effect | relaxation was almost total | 18.5 ± 3.6 | unable to completely reverse the contracture | 40.5 ± 9.5 | 31.6±4.7 % of the control | 36.4 ± 4.5 % of the control |  |  |  |
| O=C(c1ccc2c(c1)OCO2)N(Cc1ccccc1)/N=C/c1cccs1 [L786, 1,3-Benzodioxol-5-carboxylic acid, N-benzyl-N′-[1-thiophene-2-yl-meth-(E)-ylidene]-hydrazide] | 51.1±2.8 % of the control | 127 ± 13.7 | 61.9±5.5 % of the control | 77.0 ± 10.3 % of the control | The same effect was not observed |  | 86.2 ± 7.1 |  | 151 ± 7.6 | 28.7±9.9 % of the control |  | reduction in the amplitude and an extension in the duration of the muscle twitches | 25.3±12.1 % of the control | reduction in the amplitude and an extension in the duration of the muscle twitches |
